pIC50: −log10 of the molar value.

Here are results for 13 compounds from ChEMBL document CHEMBL1127168, “Synthesis and sar study of novel CCK-B antagonists” (Bioorg Med Chem Lett, 1993).

Assay [1] concerns the target T1, Gastrin/cholecystokinin type B receptor (Mus musculus, UniProt P56481).
T1 sequence (P56481 whole entry): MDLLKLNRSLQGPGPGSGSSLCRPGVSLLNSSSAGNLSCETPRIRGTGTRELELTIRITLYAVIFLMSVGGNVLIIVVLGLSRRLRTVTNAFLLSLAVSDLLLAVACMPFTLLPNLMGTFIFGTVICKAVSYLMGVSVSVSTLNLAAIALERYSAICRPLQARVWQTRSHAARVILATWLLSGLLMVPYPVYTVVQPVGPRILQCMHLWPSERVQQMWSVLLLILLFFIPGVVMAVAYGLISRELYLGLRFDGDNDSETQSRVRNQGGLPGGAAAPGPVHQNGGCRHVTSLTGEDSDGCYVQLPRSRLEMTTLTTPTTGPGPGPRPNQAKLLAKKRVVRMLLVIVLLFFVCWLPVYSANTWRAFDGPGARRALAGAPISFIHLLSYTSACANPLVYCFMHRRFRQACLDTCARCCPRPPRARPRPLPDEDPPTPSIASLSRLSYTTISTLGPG
Briefly: In vitro inhibition of [125I]- Bolton Hunter CCK-8 binding to Cholecystokinin type B receptor in the mouse cerebral cortex. It counts as tissue-based.

For assay [2], the target named is T2, Cholecystokinin receptor type A (Rattus norvegicus, UniProt P30551).
T2 sequence (P30551 whole entry): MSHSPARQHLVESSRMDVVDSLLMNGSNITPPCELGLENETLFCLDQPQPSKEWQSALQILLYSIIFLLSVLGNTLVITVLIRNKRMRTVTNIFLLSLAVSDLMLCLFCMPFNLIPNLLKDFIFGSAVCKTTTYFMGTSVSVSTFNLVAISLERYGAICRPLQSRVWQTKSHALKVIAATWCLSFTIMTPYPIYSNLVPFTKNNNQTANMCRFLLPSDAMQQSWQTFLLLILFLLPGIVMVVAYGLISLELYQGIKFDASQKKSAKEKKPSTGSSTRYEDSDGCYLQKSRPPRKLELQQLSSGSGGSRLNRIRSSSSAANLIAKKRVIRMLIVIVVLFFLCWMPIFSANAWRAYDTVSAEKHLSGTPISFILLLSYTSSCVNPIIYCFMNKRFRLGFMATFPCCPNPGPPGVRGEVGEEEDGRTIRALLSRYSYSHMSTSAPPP
The experiment in a line: In vitro inhibition of [125I]- Bolton Hunter CCK-8 to Cholecystokinin type A receptor in the rat pancreas.

Assay [3] in a line: Ratio of inhibition at CCK-A compared to CCK-B receptors.

On to `CC(Cc1c[nH]c2ccccc12)(NC(=O)OC1[C@H]2C[C@@H]3C[C@@H](C[C@H]1C3)C2)C(=O)N(CCCC(=O)O)CCc1ccccc1` (single isomer, unassigned), for which the pIC50 (commonly the negative decadic logarithm of the IC50, by convention in mol/L) was 7.10 in assay [1] and 6.25 in assay [2]. In assay [3], the Ratio was 7.
On to `C[C@@](Cc1c[nH]c2ccccc12)(NC(=O)OC1[C@H]2C[C@@H]3C[C@@H](C[C@H]1C3)C2)C(=O)N(CCC(=O)O)CCc1ccccc1` (some centres undefined), for which, in assay [2], the negative-log IC50 (pIC50) was 6.17.
For `C[C@@](Cc1c[nH]c2ccccc12)(NC(=O)OC1[C@H]2C[C@@H]3C[C@@H](C[C@H]1C3)C2)C(=O)N(CCc1ccccn1)CC(=O)O` (some centres undefined), the pIC50 in assay [1] was 8.64; in assay [2] it was 6.47. In addition, the Ratio in assay [3] came out at 146.
Regarding `CC(Cc1c[nH]c2ccccc12)(NC(=O)OC1[C@H]2C[C@@H]3C[C@@H](C[C@H]1C3)C2)C(=O)N(CCC(=O)O)CCc1ccccc1` (single isomer, unassigned), the pIC50 in assay [2] is 6.28.
As to `C[C@@](Cc1c[nH]c2ccccc12)(NC(=O)OC1[C@H]2C[C@@H]3C[C@@H](C[C@H]1C3)C2)C(=O)N(CCCCCCC(=O)O)CCc1ccccc1` (some centres undefined), the pIC50 in assay [1] was 6.46; in assay [2] it was less than 6.00. Further, the Ratio in assay [3] is more than 2.9.
The like results for `C[C@@](Cc1c[nH]c2ccccc12)(NC(=O)OC1[C@H]2C[C@@H]3C[C@@H](C[C@H]1C3)C2)C(=O)NCCc1ccccn1` (some centres undefined) were, in that order, 7.81, 5.73 and 119.
The like results for `COC(=O)CCCCCCN(CCc1ccccc1)C(=O)[C@](C)(Cc1c[nH]c2ccccc12)NC(=O)OC1[C@H]2C[C@@H]3C[C@@H](C[C@H]1C3)C2` (some centres undefined) were, in that order, 6.75, 5.20 and 35.7.
In assay [2], `C[C@@](Cc1c[nH]c2ccccc12)(NC(=O)OC1C2CC3CC(C2)CC1C3)C(=O)N[C@@H](CC(=O)O)Cc1ccccc1` (some centres undefined) gave a pIC50 of 7.59.
As to `COC(=O)CCN(CCc1ccccc1)C(=O)C(C)(Cc1c[nH]c2ccccc12)NC(=O)OC1[C@H]2C[C@@H]3C[C@@H](C[C@H]1C3)C2` (single isomer, unassigned), the pIC50 is 6.95 in assay [1] and 5.70 in assay [2]. Besides, the Ratio in assay [3] was determined as 17.5.
The like results for `COC(=O)CN(CCc1ccccc1)C(=O)[C@](C)(Cc1c[nH]c2ccccc12)NC(=O)OC1[C@H]2C[C@@H]3C[C@@H](C[C@H]1C3)C2` (some centres undefined) were, in that order, 6.27, 5.63 and 4.4.
Turning to `COC(=O)CN(CCc1ccccn1)C(=O)C(C)(Cc1c[nH]c2ccccc12)NC(=O)OC1[C@H]2C[C@@H]3C[C@@H](C[C@H]1C3)C2` (single isomer, unassigned), the results for the pIC50 in assay [1] and in assay [2] were 7.04 and 5.60, respectively. Also, in assay [3], the Ratio turned out to be 27.7.
In turn, `CC(Cc1c[nH]c2ccccc12)(NC(=O)OC1[C@H]2C[C@@H]3C[C@@H](C[C@H]1C3)C2)C(=O)N(CCc1ccccc1)CC(=O)O` (single isomer, unassigned) had a pIC50 in assay [2] of 5.97.
Same read-out and setting: then `C[C@@](Cc1c[nH]c2ccccc12)(NC(=O)OC1[C@H]2C[C@@H]3C[C@@H](C[C@H]1C3)C2)C(=O)N(CCc1ccccc1)CC(=O)O` (some centres undefined), with less than 6.00.
